Experimental data: the supplement of paper PMC4862054

Experiments:
Conditions in all cases: incubation time: 72 h
HCC1143 = experiment: drug sensitivity score (DSS), CellTiter-Blue viability (DSS (AUC-based score)); higher = stronger viability inhibition; extreme values may be limits of the assay
Method: (§1)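 DSRT with the CellTiter-Blue (resazurin reduction) viability readout, fluorescence 560/590 nm, 72 h incubation. Plates were normalised to DMSO and benzethonium chloride controls. DSS is computed from the area under the fitted dose-response curve (5 or 9 concentrations).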

SK-BR-3 = experiment: as above
Method: as §1

BT-474 = experiment: as above
Method: as §1

MFM-223 [1] = experiment: as above
Method: as §1

CAL-85-1 = experiment: as above
Method: as §1

HDQ-P1 = experiment: as above
Method: as §1

HCC1599 = experiment: as above
Method: as §1

MDA-MB-468 = experiment: as above
Method: as §1

DU-4475 [2] = experiment: as above
Method: as §1

MDA-MB-231 = experiment: as above
Method: as §1

Hs578T [3] = experiment: as above
Method: as §1

MDA-MB-453 [4] = experiment: as above
Method: as §1

HCC1937 = experiment: as above
Method: as §1

CAL-148 [5] = experiment: as above
Method: as §1

MDA-MB-436 [6] = experiment: as above
Method: as §1

CAL-120 [7] = experiment: as above
Method: as §1

CAL-51 = experiment: as above
Method: as §1

BT-549 = experiment: as above
Method: as §1

MFM-223 [8] = experiment: normalised viability (% of control), CellTiter-Blue; higher = more viable cells (about 100 = DMSO control)
How it was run: (§2)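 Each entry is normalised viability at a single listed concentration within a series. It comes from breast cancer cell lines incubated 72 h with compound in 384-well plates, then measured with CellTiter-Blue fluorescence at 560/590 nm. Every plate was normalised between vehicle (100) and a positive kill control (0).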

DU-4475 [9] = experiment: as above
How it was run: as §2

Hs578T [10] = experiment: as above
How it was run: as §2

MDA-MB-453 [11] = experiment: as above
How it was run: as §2

CAL-148 [12] = experiment: as above
How it was run: as §2

MDA-MB-436 [13] = experiment: as above
How it was run: as §2

CAL-120 [14] = experiment: as above
How it was run: as §2

SMILES	drug sensitivity score (HCC1143)	drug sensitivity score (SK-BR-3)	drug sensitivity score (BT-474)	drug sensitivity score (MFM-223 [1])	drug sensitivity score (CAL-85-1)	drug sensitivity score (HDQ-P1)	drug sensitivity score (HCC1599)	drug sensitivity score (MDA-MB-468)	drug sensitivity score (DU-4475 [2])	drug sensitivity score (MDA-MB-231)	drug sensitivity score (Hs578T [3])	drug sensitivity score (MDA-MB-453 [4])	drug sensitivity score (HCC1937)	drug sensitivity score (CAL-148 [5])	drug sensitivity score (MDA-MB-436 [6])	drug sensitivity score (CAL-120 [7])	drug sensitivity score (CAL-51)	drug sensitivity score (BT-549)	normalised viability (MFM-223 [8]; 10 nM) [%]	normalised viability (MFM-223 [8]; 1000 nM) [%]	normalised viability (MFM-223 [8]; 10000 nM) [%]	normalised viability (DU-4475 [9]; 3 nM) [%]	normalised viability (DU-4475 [9]; 30 nM) [%]	normalised viability (DU-4475 [9]; 100 nM) [%]	normalised viability (Hs578T [10]; 10 nM) [%]	normalised viability (Hs578T [10]; 1000 nM) [%]	normalised viability (Hs578T [10]; 10000 nM) [%]	normalised viability (MDA-MB-453 [11]; 3 nM) [%]	normalised viability (MDA-MB-453 [11]; 30 nM) [%]	normalised viability (MDA-MB-453 [11]; 100 nM) [%]	normalised viability (CAL-148 [12]; 3 nM) [%]	normalised viability (CAL-148 [12]; 30 nM) [%]	normalised viability (CAL-148 [12]; 100 nM) [%]	normalised viability (MDA-MB-436 [13]; 10 nM) [%]	normalised viability (MDA-MB-436 [13]; 1000 nM) [%]	normalised viability (MDA-MB-436 [13]; 10000 nM) [%]	normalised viability (CAL-120 [14]; 10 nM) [%]	normalised viability (CAL-120 [14]; 1000 nM) [%]	normalised viability (CAL-120 [14]; 10000 nM) [%]
O=C(Cc1ccc(-c2ccc(OCCN3CCOCC3)cc2)cn1)NCc1ccccc1 [KX2-391]	23.1	25	11.2	17.9	19.6	16	7.95	16.6	25.9	24.2	25.9	21.5	24.2	22.6	14.6	23.4	24.2	24.1	91.2	40.7	26.9	83.8	80.5	16.1	94.4	15.4	20.5	114	72.6	25	94.8	91.3	16.8	98.3	56.6	39.2	93.5	21.3	21.3
O=C(O)C(=O)O.[NH-][C@@H]1CCCC[C@H]1[NH-].[Pt+2] [Oxaliplatin]	1.68	0.975	0	0	0	0	2.34	2.32	1.32	0	0	1.94	3.82	2.79	2.6	0	1.13	4	98.6	94.1	50.5	112	106	100	106	129	66.9	119	101	113	93	106	120	111	88.6	56.5	87.1	93.2	52.2
C=CC(=O)Nc1cc2c(Nc3ccc(F)c(Cl)c3)ncnc2cc1OCCCN1CCOCC1 [Canertinib]	3.63	27.4	18.5	5.96	11.9	14	1.14	13.9	2.6	8.24	4.83	15.9	7.24	7.47	11.6	6.69	3.66	6.86	94.8	78.6	19.7	107	113	96.8	96	108	1.26	105	86.9	72.6	81.8	88.8	75.6	139	43.5	10.5	79.9	72.5	6.63
COc1cc([C@@H]2c3cc4c(cc3[C@@H](O[C@@H]3O[C@@H]5CO[C@@H](c6cccs6)O[C@H]5[C@H](O)[C@H]3O)[C@H]3COC(=O)[C@H]23)OCO4)cc(OC)c1O [Teniposide]	11.7	21.4	1.44	7.43	8.14	4.07	8.13	10.9	28	7.47	4.64	6.23	19.7	18.5	10.3	11.2	22.2	9.11	99.3	84.4	13.1	82	67.8	28.1	109	94.5	12.2	135	92.8	109	103	69.3	61	92.1	55.1	23.6	108	55.9	10.3
